In patent US12447171B2 (CELGENE QUANTICEL RESEARCH, INC., priority 2019, dated 2025):

Assays:
Format in all cases: cell-based
MCL-1 = assay: Western blot of MCL-1 in AML cell lines
Description: Lysates were quantified using a bicinchoninic acid (BCA) kit (Piece/Thermo Fisher, Waltham, MA). 20 to 30 μg protein was resolved on a 4-12% SDS-PAGE gel, transferred to PVDF membranes (80V/90 minute by wet-transfer), and blocked with Oddysey TBS blocking buffer for 1 hour and then probed with appropriate primary antibodies overnight at 4° C. using dilution as recommended by manufacturer. Membranes were washed three times for a total of 30 minutes and then incubated with secondary antibodies at room temperature in the dark for 1 hour. After another three washes, Odyssey infrared imaging system and companion software (LI-COR biosciences, Lincoln, NE, USA) were used to scan immunoblot membranes and to quantify band intensity according to the manufacturer's instructions. The ratio of proteins of interest to loading control in treated samples was normalized to the corresponding ratio in untreated cells. Antibodies used for immunoblotting were purchased from the following sources: BCL-2 (sc-7382), MCL1- (sc-819) from Santa Cruz Biotechnology (Dallas, TX, USA, Bim (2819), caspase-3 (9664) from Cell Signaling Technology; beta-Actin (A2228) from Sigma-Aldrich; DNMTI (ab188453) from AbCam; TRDye 680 goat anti-rabbit and IRDye 800 goat anti-mouse secondary antibodies (#925-68073 and #925-32212) were purchased from Li-COR Biosciences (Lincoln, NE).

BaF-FLT3(WT) = assay: Cell viability assay (Cell Titer-Glo), BaF3 cells expressing FLT3; details: Mus musculus
MV4-11 cells = assay: RNASeq analysis of MV4-11 cells; details: MV4-11, 1 μM 5-azacytidine
Description: After treatment, cells were recovered, washed once in PBS, and flash frozen as cell pellets. Cell pellets were sent to Canopy Biosciences for RNA extraction and library preparation and sequencing. RNA was extracted using the Qiagen RNeasy Mini Kit according to manufacturer's instructions. A modified protocol was used to preserve miRNA species. Total RNA Seq libraries were prepared using 200 ng of total RNA and the NEBNext Ultra II Directional Library prep kit. rRNA depletion was performed using an RNase-H based method (New England Biolabs, Ipswich, MA). MCL1 RNA levels in other cell lines were quantified by RNASeq using standard methods.
Libraries were multiplexed and sequenced using Illumina HiSeq. All gene counts were then imported into the R/Bioconductor package EdgeR and TMM normalization size factors were calculated to adjust for samples for differences in library size. Ribosomal genes and genes not expressed in the smallest group size minus one samples greater than one count-per-million were excluded from further analysis. Differential expression analysis was then performed to analyze for differences between conditions and the results were filtered for only those genes with Benjamini-Hochberg false-discovery rate adjusted p-values less than or equal to 0.05. Global perturbations in known Gene Ontology (GO) terms and KEGG pathways were detected using the R/Bioconductor package GAGE to test for changes in expression of the reported log 2 fold-changes reported by Limma in each term versus the background log 2 fold-changes of all genes found outside the respective term. The R/Bioconductor package heatmap and Pathview was used to display heatmaps or annotated KEGG graphs across groups of samples for each GO term or KEGG pathway (respectively) with a Benjamini-Hochberg false-discovery rate adjusted p-value less than or equal to 0.05. To find differentially expressed genes, the raw counts were variance stabilized with the R/Bioconductor package DESeq2.

BaF-FLT3(D835Y) = assay: Cell viability assay (Cell Titer-Glo), BaF3 cells expressing FLT3; details: Mus musculus
BaF-FLT3-ITD = assay: as above; details: Mus musculus

## Nc1ncn([C@@H]2O[C@H](CO)[C@@H](O)[C@H]2O)c(=O)n1 [5-azacytidine, 4-amino-1-B-D-ribofuranosyl-1,3,5-triazin-2(1H)-one]
MCL-1; KG1α
  start of MCL-1 degradation after treatment: 6 h
MCL-1; MV4-11
  start of MCL-1 degradation after treatment: 6 h
MCL-1; OCI-AML2
  MCL-1 degradation: did not lead to any degradation of MCL-1
MCL-1; THP-1
  start of MCL-1 degradation after treatment: 16 h
MCL-1; THP-1, by 24 hours
  extent of MCL-1 degradation: incomplete degradation by 24 hours
BaF-FLT3(WT)
  EC50: 189 nM
MV4-11 cells; 24 h
  Mean logFC, Kegg pathway Antigen processing and presentation: −3.39
  Mean logFC, Kegg pathway Biosynthesis of unsaturated fatty acids: −3.26
  Mean logFC, Kegg pathway Carbon metabolism: −3.35
  Mean logFC, Kegg pathway Cardiac muscle contraction: −2.61
  Mean logFC, Kegg pathway Cell cycle: −5.75
  Mean logFC, Kegg pathway Cellular senescence: −2.69
  Mean logFC, Kegg pathway DNA replication: −4.45
  Mean logFC, Kegg pathway Fatty acid elongation: −2.87
  Mean logFC, Kegg pathway Fatty acid metabolism: −3.43
  Mean logFC, Kegg pathway Lysasome: −2.82
  Mean logFC, Kegg pathway Metabolic pathways: −5.79
  Mean logFC, Kegg pathway Mismatch repair: −2.98
  Mean logFC, Kegg pathway Necroptosis: −3.78
  Mean logFC, Kegg pathway Oxidative phosphorylation: −7.32
  Mean logFC, Kegg pathway Phagosome: −4.13
  Mean logFC, Kegg pathway Proteasome: −4.41
  Mean logFC, Kegg pathway Protein export: −3.19
  Mean logFC, Kegg pathway Protein processing in endoplasmic reticulation: −4.96
  Mean logFC, Kegg pathway RNA transport: −3.08
  Mean logFC, Kegg pathway Regulation of actin cytoskeleton: −2.46
  Mean logFC, Kegg pathway Ribosome: −10.50
  Mean logFC, Kegg pathway Spliceasome: −4.10
  Mean logFC, Kegg pathway Taste transduction: −2.44
  Mean logFC, Kegg pathway Terpenoid backbone biosynthesis: −2.48
  Mean logFC, Kegg pathway p53 signaling pathway: −2.42
MV4-11 cells; 24 hours
  differentially expressed genes: 133
MV4-11 cells; 48 hours
  KEGG pathways regulated: No significant differences
  differentially expressed genes: 226
BaF-FLT3(D835Y)
  EC50: 456 nM
BaF-FLT3-ITD
  EC50: 598 nM
